Laboratory results: US12246022B2, “Compositions and methods for treating, preventing or reversing age associated inflammation and disorders” (BROWN UNIVERSITY, priority 2019, dated 2025)
Where two headings read alike, the source gives them in different places. One block for each molecule: values may come before it.

Assays:
[1] = test system: human LINE-1; assay: Human LINE-1 retrotransposition assay, related experiments with islatravir (pYX017, HeLa cells, Tables 12 and 13); type: cell-based; settings: for IC50: Homo sapiens
Protocol: In related experiments, islatravir and other compounds were tested for inhibition of retrotransposition activity of human LINE-1 in HeLa cells according to the following procedure.
HeLa cervical cancer cells were cultivated at 37° C. in a humidified 5% CO2 incubator in Dulbecco's Modified Eagle's Medium (DMEM)—high glucose, with 4500 mg/L glucose, L-glutamine, sodium pyruvate and sodium bicarbonate (Sigma), supplemented with 10% of heat inactivated fetal bovine serum (Thermo Fisher).
Assays were performed using reporter plasmid pYX017 as described (Xie, et al., 2011) with several modifications. The reporter assay was performed in 96-well white optical bottom plates. HeLa cells were seeded in wells 24 h prior to transfection and compound treatment so that cells were approximately 30% confluent on the day of transfection. Different cell plating densities were tested and a density of 2×10^3 cells was determined to be optimal.
Compounds were resuspended in DMSO. Serial dilutions (1:3) were prepared in DMSO. Medium containing different concentrations of the compounds were prepared by adding 2 μl of the compound dilution to 1 ml of the culture medium. The final concentration of DMSO in the medium was 0.2%.
FuGENE® HD transfection reagent (Promega, E2311, Lot 382574 and Lot 397842) was used to transfect the plasmids into the cells. The transfection reagent: DNA mixture was prepared in OpiMEM (Thermo Fisher) according to manufacturer's instructions. Different ratios of transfection reagent to DNA were tested and a ratio of 3:1 was determined to be optimal. Culture medium was removed from the cells and discarded. The transfection reagent: DNA mixture (5 μl) was mixed with the compound containing medium (100 μl/well) and this was added onto the cells of each well. Cells were incubated at 37° C./5% CO2 for different incubation time. A 72 h incubation time was determined to be optimal.
Luciferase reporter activity was quantified with the Dual-Luciferase® Reporter Assay System (Promega) according to manufacturer's instructions for multiwell plates except that cells were lysed directly on the multiwell plate with 30 μl of the passive lysis buffer (PLB) for 20 min at room temperature, with gentle shaking to ensure complete cell lysis.
Firefly and Renilla luciferase signals were measured using a SpectraMax i3x Multi-Mode Microplate Reader. Integration times of 100 ms and 10 ms were used to measure the Firefly and Renilla signals respectively. Relative L1 activity is calculated as Firefly/Renilla *1000 or Firefly/Renilla *10,000. Dose response inhibition data were fit to a four parameter logistic equation using non-linear regression (using Graphpad Prism 8), to determine IC50 values for each inhibitor.

[2] = test system: human LINE-1; assay: Islatravir Inhibitory Quotient (IQ) estimate for human LINE-1 in PBMC and brain; settings: for Human LINE-1 IQ C168 hr, PBMC, single dose / Human LINE-1 IQ Cavg (ss), PBMC, q.d.: EFdA-TP EC50 = 316 nM; for Human LINE-1 IQ C168 hr, Brain, single dose / Human LINE-1 IQ Cavg (ss), Brain, q.d.: assume Br./plasma = 0.25
[3] = test system: HIV WT; settings: Grobler et al. 2019; read-out: HIV WT IC50; cited from earlier work
[4] = cited from earlier work
[5] = human plasma PK, oral dose 0.5-30 mg; cited from earlier work
[6] = Table 13 Comparative Studies; cited from earlier work
[7] = test system: IFN-I response; assay: IFN-I response in senescent and 3X human fibroblasts (RT-qPCR, ELISA, immunoblotting); type: cell-based; settings: LF1 and IMR90, 5 μM
Excerpt: (§1) To obtain replicatively senescent (RS) cells, LF1 cultures were serially propagated until proliferation ceased. At each passage, after reaching 80% confluence cells were trypsinized and diluted 1:4. […] In early passage cultures, the time between passages is constant at approximately 3 days. […] At this point, after reaching 80% confluence, the cells were replated at 1:2 dilution, and this time was designated as the last passage (point A in FIG. 2A). […] Under this experimental regimen, the majority of the cells in the culture enter senescence within a 3-4 weeks window centered roughly around the time of last passage (grey bar in FIG. 2A). At point B (4 weeks), the cultures were trypsinized and replated as described^60 to eliminate a small fraction of persisting contact-inhibited cells. Cultures were again replated at point C (8 weeks).
Oncogene-induced senescence (OIS) was elicited by infecting proliferating LF1 cells with pLenti CMV RasV12 Neo (Addgene plasmid #22259). Generation of lentiviral particles and the infection procedure are described below. At the end of the infection, cells were reseeded at 15-20% confluency and selected with G418 (250 μg/ml) maintained continuously until the end of the experiment Medium was changed every 3 days until the cultures were harvested at the indicated time points. Stress-induced premature senescence (SIPS) was elicited by […] irradiation with 20 Gy given at a rate of 87 cGy/min in one fraction using a cesium-137 gamma source (Nordion Gammacell 40). Cells were 15-20% confluent at the time of irradiation. Medium was changed immediately after irradiation, and at 3-day intervals thereafter. […]
The ABI ViiA 7 instrument (Applied Biosystems) was used for all experiments. qPCR of DNA was performed using the TaqMan system (Applied Biosystems) as described by Coufal et al. (2009).^64 […] of purified genomic DNA was used with the indicated primers (see Table 1). […] Effectiveness of the DNase digestion was assessed using controls that omitted the RT enzyme. […]

[8] = test system: SASP response; assay: Senescence entry and SASP gene expression in human fibroblasts (RT-qPCR); type: cell-based; settings: LF1, 5 μM
Excerpt: as §1
(§2) The ABI ViiA 7 instrument (Applied Biosystems) was used for all experiments. qPCR of DNA was performed using the TaqMan system (Applied Biosystems) as described by Coufal et al. (2009).^64 […] of purified genomic DNA was used with the indicated primers (see Table 1). Reverse transcription qPCR (RT-qPCR) of RNA was performed using the SYBR Green system (Applied Biosystems). […] Effectiveness of the DNase digestion was assessed using controls that omitted the RT enzyme.

[9] = test system: L1HS sequences; assay: L1 sequence abundance (copy number) by TaqMan qPCR in senescent fibroblasts; type: cell-based, human; settings: LF1, IMR90, W138 fibroblasts, 5 μM in medium, 4 months in senescence
Protocol: as §2, with “Biosystems). Polyadenylated RNA was used in all experiments assessing transcription of L1 elements, and total RNA was used for all other genes. Total RNA was harvested using the Trizol reagent (Invitrogen). Poly(A) RNA was isolated from total RNA using the NEBNext Poly(A) mRNA Magnetic Isolation Module (New England Biolabs).” for “Biosystems).”
Primer sets 1 to 5 (Table 1, amplicons A to E in FIG. 1B) to human L1 were designed to preferentially amplify elements of the human-specific L1 HS and evolutionarily recent primate-specific L1 PA(2-6) subfamilies, as follows. […] Sequences of primers corresponding to a consensus of all the murine IFN alpha family genes, as well as to the IFNB1 gene, were obtained from the publication by Gautier et al.^71 For quantifying relative L1 genomic copy number (human cells), the TaqMan multiplex method developed by Coufal et al. (2009)^72 was used. […]

[10] = daily dose of 2 mg, steady state

IC50 ([1]; HeLa, Table 13 Comparative Studies, read-out: Human Line-1 IC50): 5 nM | IC50 ([1]; HeLa, see Table 12, read-out: in vitro IC50 for human LINE-1 in cell-based assay): 1.29 nM | IC50 ([1]; HeLa cells, pYX017, 72 h, n = 3, read-out: Human LINE-1 IC50, Average): 1.29 nM | IC50 ([1]; HeLa cells, pYX017, 72 h, read-out: Human LINE-1 IC50, Exp. 3): 1.4 nM | IC50 ([1]; HeLa cells, pYX017, 72 h, read-out: Human LINE-1 IC50, Exp.2): 1.18 nM
SMILES: C#C[C@]1(CO)O[C@@H](n2cnc3c(N)nc(F)nc32)C[C@@H]1O [Islatravir, 2′-deoxy-4′-ethynyl-2-fluoroadenosine]
human LINE-1 inhibitor activity compared to the other reverse transcriptase inhibitory drugs tested ([1]; HeLa cells): unexpectedly better human LINE-1 inhibitor activity | Human LINE-1 IQ C168 hr, PBMC, single dose ([2]; Dose 0.5 mg): 1.84 | Human LINE-1 IQ Cavg (ss), PBMC, q.d. ([2]; Dose 0.5 mg): 23.41 | Human LINE-1 IQ C168 hr, Brain, single dose ([2]; Dose 0.5 mg): 0.46 | Human LINE-1 IQ Cavg (ss), Brain, q.d. ([2]; Dose 0.5 mg): 5.85 | Human LINE-1 IQ C168 hr, PBMC, single dose ([2]; Dose 1 mg): 2.61 | Human LINE-1 IQ Cavg (ss), PBMC, q.d. ([2]; Dose 1 mg): 39.79 | Human LINE-1 IQ C168 hr, Brain, single dose ([2]; Dose 1 mg): 0.66 | Human LINE-1 IQ Cavg (ss), Brain, q.d. ([2]; Dose 1 mg): 9.95 | Human LINE-1 IQ C168 hr, PBMC, single dose ([2]; Dose 2 mg): 3.00 | Human LINE-1 IQ Cavg (ss), PBMC, q.d. ([2]; Dose 2 mg): 50.54 | Human LINE-1 IQ C168 hr, Brain, single dose ([2]; Dose 2 mg): 0.75 | Human LINE-1 IQ Cavg (ss), Brain, q.d. ([2]; Dose 2 mg): 12.64 | Human LINE-1 IQ C168 hr, PBMC, single dose ([2]; Dose 10 mg): 15.64 | Human LINE-1 IQ Cavg (ss), PBMC, q.d. ([2]; Dose 10 mg): 295.15 | Human LINE-1 IQ C168 hr, Brain, single dose ([2]; Dose 10 mg): 3.92 | Human LINE-1 IQ Cavg (ss), Brain, q.d. ([2]; Dose 10 mg): 73.79 | Human LINE-1 IQ C168 hr, PBMC, single dose ([2]; Dose 30 mg): 76.88 | Human LINE-1 IQ Cavg (ss), PBMC, q.d. ([2]; Dose 30 mg): 915.31 | Human LINE-1 IQ C168 hr, Brain, single dose ([2]; Dose 30 mg): 19.22 | Human LINE-1 IQ Cavg (ss), Brain, q.d. ([2]; Dose 30 mg): 228.83 | IQ for human LINE-1 in PBMCs [2, 10]: 51 | IQ for human LINE-1 in brain [2, 10]: 13 | IC50 [3]: 0.2 nM | Plasma-Brain Kapp ([4]; non-human primate): 0.25 | blood brain barrier penetration ([4]; single oral doses, Rhesus macaque): penetrated the blood brain barrier (BBB) | oral clearance [5]: 31 to 45 L/h | huCSF/Plasma [6]: 0.25

SMILES: Nc1ncnc2c1ncn2CCOCP(=O)(O)O [Adefovir]
interferon gene expression (IFN-α, IFN-β1) in senescent cells [7]: significantly reduced | SASP gene expression (IL-6, MMP3) in senescent cells [8]: significantly decreased | senescence-induced increase of L1 copy number [9]: significantly prevented this increase
